Data from article PMC5539197, “CD14 is critical for TLR2-mediated M1 macrophage activation triggered by N-glycan recognition” (Scientific Reports, 2017).

Molecular target: T1, ArtinM (Artocarpus integer, UniProt Q7M1T4)
T1 construct: tetramer
T1 sequence (Q7M1T4 1-149): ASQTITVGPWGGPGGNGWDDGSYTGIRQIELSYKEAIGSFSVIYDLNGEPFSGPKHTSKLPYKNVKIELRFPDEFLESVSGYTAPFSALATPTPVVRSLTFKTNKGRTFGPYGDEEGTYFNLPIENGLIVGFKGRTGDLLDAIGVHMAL
Assay: inhibition of lectin precipitation, western blot
Format: binding
Settings: 1 mM trimannoside pre-incubated, 4 °C; lysate of HEK cells transfected with CD14 or TLR2; carbohydrate recognition site, competes with glycoprotein N-glycans
Procedure: inhibition of lectin precipitation, western blot on […] | CD14 and TLR2 were not detected when the procedure was carried out with […]

## OC[C@H]1O[C@H](OC[C@H]2OC(O)[C@@H](O)[C@@H](O[C@H]3O[C@H](CO)[C@@H](O)[C@H](O)[C@@H]3O)[C@@H]2O)[C@@H](O)[C@@H](O)[C@@H]1O (stereo partly shown) [Manα1-3(Manα1-6)Man]
  inhibition of lectin precipitation, western blot: CD14 and TLR2 were not detected when the procedure was carried out with ArtinM
